ChEMBL document CHEMBL5365457, “Selective HDAC3 Inhibitors with Potent In Vivo Antitumor Efficacy against Triple-Negative Breast Cancer” (J Med Chem, 2023)
Active and inactive are the calls of the source. No cut-off for these calls is given here.

Tests used:
[1] = Selectivity ratio of IC50 for cytotoxicity against human HCEC cells assessed as inhibition of cell growth to IC50 for cytotoxicity against mouse 4T1 cells assessed as inhibition of cell growth; assay type: toxicity, cell-based; details: HCEC cells versus 4T1 cells, read-out: Ratio IC50
[2] = tested on: 4T1; test: Antitumor activity against mouse 4T1 cells implanted in BALB/c mouse assessed as tumor growth inhibition at 5 mg/kg, ip measured on day 14; assay type: functional; details: 4T1, 336 h, time 14 day, read-out: TGI
[3] = tested on: 4T1; test: Antitumor activity against mouse 4T1 cells implanted in BALB/c mouse assessed as upregulation of caspase-3 level in tumor at 5 to 15 mg/kg, ip by Western blot analysis; assay type: functional, organism-based; details: dose 5-15 mg/kg
[4] = Toxicity in BALB/c mouse implanted with mouse 4T1 cells assessed as heart damage at 5 to 15 mg/kg, ip measured after 21 days by H and E staining based assay; assay type: organism-based; details: in vivo, 504 h, dose 5-15 mg/kg, time 21 day
[5] = tested on: 4T1; test: Antitumor activity against mouse 4T1 cells implanted in BALB/c mouse assessed as increase in apoptosis in tumor tissue at 5 to 15 mg/kg, ip by TUNEL staining based microscopic analysis; assay type: functional, organism-based; details: dose 5-15 mg/kg
[6] = Selectivity ratio of IC50 for cytotoxicity against human HEK293 cells assessed as inhibition of cell growth to IC50 for cytotoxicity against human MDA-MB-453 cells assessed as inhibition of cell growth; assay type: toxicity, cell-based; details: HEK293 cells versus MDA-MB-453 cells, read-out: Ratio IC50
[7] = Apparent oral clearance in Wistar rat at 15 mg/kg, ip measured upto 24 hrs by HPLC analysis; assay type: ADME, organism-based; details: in vivo
[8] = Apparent oral clearance in Wistar rat at 5 mg/kg, ip measured upto 24 hrs by HPLC analysis; assay type: ADME, organism-based; details: in vivo
[9] = Selectivity ratio of IC50 for cytotoxicity against human MCF-10A cells assessed as inhibition of cell growth to IC50 for cytotoxicity against human MCF7 cells assessed as inhibition of cell growth; assay type: toxicity, cell-based; details: MCF-10A cells versus MCF7 cells, read-out: Ratio IC50
[10] = tested on: 4T1; test: Antitumor activity against mouse 4T1 cells implanted in BALB/c mouse assessed as downregulation of Bcl-2 level in tumor at 5 to 15 mg/kg, ip by Western blot analysis; assay type: functional, organism-based; details: dose 5-15 mg/kg
[11] = tested on: MCF7; test: Cytotoxicity against human MCF7 cells assessed as inhibition of cell growth incubated for 72 hrs by MTT assay; assay type: functional, cell-based; details: MCF7, 72 h
[12] = tested on: 4T1; test: Antitumor activity against mouse 4T1 cells implanted in BALB/c mouse assessed as reduction in EGFR protein level in tumor at 5 to 15 mg/kg, ip by Western blot analysis; assay type: functional, organism-based; details: dose 5-15 mg/kg
[13] = tested on: 4T1; test: Induction of apoptosis in mouse 4T1 cells at 2.75 uM incubated for 72 hrs by annexin/PI staining based flow cytometry analysis (reference value: 1.35%); assay type: functional
[14] = Cytotoxicity against Oxaliplatin-resistant human MDA-MB-231 cell assessed as reduction in cell viability incubated for 72 hrs in presence of oxaliplatin by MTT assay; assay type: functional, cell-based; details: Oxaliplatin-resistant MDA-MB-231 cell
[15] = tested on: 4T1; test: In-vivo inhibition of HDAC3 in BALB/c mouse implanted with mouse 4T1 cells assessed as increase in acetylation of tubulin level at 5 to 15 mg/kg, ip by Western blot analysis; assay type: functional, organism-based; details: dose 5-15 mg/kg
[16] = tested on: 4T1; test: Antitumor activity against mouse 4T1 cells implanted in BALB/c mouse assessed as tumor growth inhibition at 5 mg/kg, ip measured on day 7; assay type: functional; details: 4T1, 168 h, time 7 day, read-out: TGI
[17] = tested on: MDA-MB-231; test: Cytotoxicity against wild type human MDA-MB-231 cells assessed as reduction in cell viability incubated for 72 hrs in presence of oxaliplatin by MTT assay; assay type: functional, cell-based; details: MDA-MB-231, 72 h
[18] = MRT (0 to infinity) in Wistar rat at 15 mg/kg, ip measured upto 24 hrs by HPLC analysis; assay type: ADME, organism-based; details: in vivo
[19] = tested on: 4T1; test: Cytotoxicity against mouse 4T1 cells assessed as inhibition of cell growth incubated for 72 hrs by MTT assay; assay type: functional, cell-based; details: 4T1, 72 h
[20] = Toxicity in BALB/c mouse implanted with mouse 4T1 cells assessed as effect on cell size in heart at 5 to 15 mg/kg, ip measured after 21 days by H and E staining based assay; assay type: organism-based; details: in vivo, 504 h, dose 5-15 mg/kg, time 21 day
[21] = molecular target: Histone deacetylase 2 (Homo sapiens, UniProt Q92769); test: Inhibition of human recombinant HDAC2 at 1 uM incubated for 30 mins by fluorescence based microplate assay relative to control
[22] = Half life in Wistar rat at 15 mg/kg, ip measured upto 24 hrs by HPLC analysis; assay type: ADME, organism-based; details: in vivo
[23] = tested on: 4T1; test: In-vivo inhibition of HDAC3 in ip dosed BALB/c mouse implanted with mouse 4T1 cells assessed as hyperacetylation of H3K9 level by Western blot analysis; assay type: functional, organism-based; details: dose 5-15 mg/kg
[24] = tested on: 4T1; test: Cell cycle arrest in mouse 4T1 cells assessed as accumulation of cells at G2/M phase at 550 nM incubated for 72 hrs by flow cytometry; assay type: functional
[25] = tested on: 4T1; test: In-vivo inhibition of HDAC3 in BALB/c mouse implanted with mouse 4T1 cells assessed as increase in acetylation of SMC3 level at 5 to 15 mg/kg, ip by Western blot analysis; assay type: functional, organism-based; details: dose 5-15 mg/kg
[26] = tested on: Mus musculus; test: Induction of ROS generation in mouse implanted with mouse 4T1 cells at 15 mg/kg, ip administered for 21 days by DCFH-DA staining based microscopic analysis; assay type: functional, organism-based; details: time 21.0 day
[27] = tested on: 4T1; test: Induction of apoptosis in mouse 4T1 cells assessed as increase cytochrome c level by Western blot analysis; assay type: functional, cell-based; details: dose 1.0 µM
[28] = tested on: 4T1; test: Induction of apoptosis in mouse 4T1 cells assessed as cell shrinkage incubated for 72 hrs by acridine orange staining based analysis; assay type: functional
[29] = Toxicity in BALB/c mouse implanted with mouse 4T1 cells assessed as neutrophilic infiltration in liver at 5 to 15 mg/kg, ip measured after 21 days; assay type: organism-based; details: in vivo, 504 h, dose 5-15 mg/kg, time 21 day
[30] = tested on: MDA-MB-453; test: Cytotoxicity against human MDA-MB-453 cells assessed as inhibition of cell growth incubated for 72 hrs by MTT assay; assay type: functional, cell-based; details: MDA-MB-453, 72 h
[31] = Toxicity in BALB/c mouse implanted with mouse 4T1 cells assessed as neutrophilic infiltration in kidney at 5 to 15 mg/kg, ip measured after 21 days; assay type: organism-based; details: in vivo, 504 h, dose 5-15 mg/kg, time 21 day
[32] = Tmax in Wistar rat at 15 mg/kg, ip measured upto 24 hrs by HPLC analysis; assay type: ADME, organism-based; details: in vivo
[33] = tested on: 4T1; test: Antitumor activity against mouse 4T1 cells implanted in BALB/c mouse assessed as reduction in Ki-67 protein level in tumor at 5 to 15 mg/kg, ip by Western blot analysis; assay type: functional, organism-based; details: dose 5-15 mg/kg
[34] = tested on: 4T1; test: In-vivo inhibition of HDAC3 in ip dosed BALB/c mouse implanted with mouse 4T1 cells assessed as hyperacetylation of H3K27 level by Western blot analysis; assay type: functional, organism-based; details: dose 5-15 mg/kg
[35] = tested on: 4T1; test: Induction of apoptosis in mouse 4T1 cells assessed as increase in cleaved caspase-3 level by Western blot analysis; assay type: functional, cell-based; details: dose 1.0 µM
[36] = tested on: 4T1; test: Antitumor activity against mouse 4T1 cells implanted in BALB/c mouse assessed as upregulation of cytochrome c level in tumor at 5 to 15 mg/kg, ip by Western blot analysis; assay type: functional, organism-based; details: dose 5-15 mg/kg

Chain of Histone deacetylase 2 (Q92769 whole entry): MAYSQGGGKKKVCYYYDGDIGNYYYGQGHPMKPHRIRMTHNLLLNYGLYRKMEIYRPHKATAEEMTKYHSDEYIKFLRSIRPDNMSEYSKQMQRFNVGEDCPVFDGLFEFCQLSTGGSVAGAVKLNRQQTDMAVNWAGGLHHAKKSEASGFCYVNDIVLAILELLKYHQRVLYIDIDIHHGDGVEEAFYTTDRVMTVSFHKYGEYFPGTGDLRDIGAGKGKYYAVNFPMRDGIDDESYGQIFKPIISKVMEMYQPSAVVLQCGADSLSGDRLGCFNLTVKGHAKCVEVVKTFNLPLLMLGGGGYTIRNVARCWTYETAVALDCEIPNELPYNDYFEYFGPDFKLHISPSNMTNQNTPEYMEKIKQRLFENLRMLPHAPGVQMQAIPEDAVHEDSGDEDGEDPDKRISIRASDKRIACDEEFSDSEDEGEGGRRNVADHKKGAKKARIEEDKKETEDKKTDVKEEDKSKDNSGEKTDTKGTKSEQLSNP

Structure (SMILES): CCCNNC(=O)c1cnc(NCc2ccc(OC)cc2)cn1
- selectivity ratio [1]: 286
- inhibition in vivo at 5 mg/kg [2]: 91.2%
- Activity [3]: Active
- Activity [4]: Non-Toxic
- Activity [5]: Active
- selectivity ratio [6]: 286
- CL/F [7]: 1.3 (mg/kg)/(ug/ml).hr
- CL/F [8]: 1.15 (mg/kg)/(ug/ml).hr
- selectivity ratio [9]: 385
- Activity [10]: Active
- IC50 [11]: 0.95 µM
- Activity [12]: Active
- Activity [13]: 94.6%
- IC50 [14]: 0.447 µM
- inhibition [15]: Active
- inhibition in vivo at 5 mg/kg [16]: 76.2%
- IC50 [17]: 0.403 µM
- MRT inf [18]: 6.57 h
- IC50 [19]: 0.55 µM
- Activity [20]: Non-Toxic
- inhibition [21]: < 17%
- half-life [22]: 7.2 h
- inhibition [23]: Dose-Dependent Effect
- Activity [24]: 52.6%
- inhibition [25]: Active
- Activity [26]: Active
- Activity [27]: Dose-Dependent Effect
- Activity [28]: Active
- Activity [29]: Non-Toxic
- IC50 [30]: 1.72 µM
- Activity [31]: Non-Toxic
- Tmax [32]: 2 h
- Activity [33]: Active
- inhibition [34]: Dose-Dependent Effect
- Activity [35]: Dose-Dependent Effect
- Activity [36]: Active
